Test results published in paper PMC6934184, “Selective DNA-PKcs inhibition extends the therapeutic index of localized radiotherapy and chemotherapy” (The Journal of Clinical Investigation, 2019).

Target: T1, MAP2K6 (MKK6) S207E T211E (Homo sapiens, UniProt P52564, S207E/T211E)
T1 construct: purchased Thermo Fisher Scientific (Life Technologies) SelectScreen
Assay: SelectScreen LanthaScreen
Format: binding
Conditions: read-out: % displacement
Summary of the method: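 SelectScreen broad panel; activity (Z'LYTE, Adapta) plus binding formats. ATP: Km app for CSF1R Z'LYTE; 10 for CAMK1 Adapta. Readout = % per kinase.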

T1 sequence (P52564 whole entry S207E/T211E): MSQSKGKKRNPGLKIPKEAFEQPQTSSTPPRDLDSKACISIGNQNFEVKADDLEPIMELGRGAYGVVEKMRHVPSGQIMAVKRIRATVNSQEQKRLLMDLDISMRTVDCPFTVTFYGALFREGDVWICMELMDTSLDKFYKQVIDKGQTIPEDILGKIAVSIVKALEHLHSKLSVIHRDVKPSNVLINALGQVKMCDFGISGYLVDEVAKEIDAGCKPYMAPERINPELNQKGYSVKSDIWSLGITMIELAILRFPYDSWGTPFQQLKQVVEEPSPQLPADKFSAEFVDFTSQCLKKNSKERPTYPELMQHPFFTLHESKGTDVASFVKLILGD

Work on `CN(C(=O)CN1CCOCC1)c1ccc2sc3c(-c4cccc5c(=O)cc(N6CC7CCC(C6)O7)oc45)cccc3c2c1` [NU5455] yielded an inhibition at 1 µM of -4.9%.
